# Test system: Male CD rats
# Assay: conditioned avoidance (shelf-jump response) test
# Assay type: in vivo
# Details: i.p.
# Excerpt: A test designed to determine the potential antipsychotic activity of the compounds of the invention is the conditioned avoidance (shelf-jump response) test.
# Male CD rats (Charles River) maintained at approximately 400-450 gm body weight are used. […] A moveable wall, controlled by a motor, determines whether the rat has access to the shelf at any time during the experiment. The experimental chamber also contains a house light and sonalert. A steel grid floor in the main chamber is wired for presentation of electric shock. Each trial consists of a fifteen-second warning tone (conditioned stimulus), continuing for an additional fifteen seconds accompanied by electric shock (unconditioned stimulus). A response (jumping onto the exposed shelf of the upper chamber) occurring during the initial fifteen-second warning tone is considered an avoidance response, while a response occurring during shock delivery is considered an escape response. Trials are presented on a fixed interval schedule of one minute. The session consists of thirty-six trials. Animals are run twice weekly with control sessions always preceding a drug run, and with at least one day intervening. Compounds are administered i.p. or p.o. at appropriate pre-treatment times to a minimum of five rats at each dose level over a range of doses.
# The following experimental parameters are recorded by computer: (1) the number of avoidance responses, (2) the number of escape responses, and (3) the number of trials in which no response occurred.
# Response counts are summed over all subjects at a given dose. […] This number is expressed as a percentage of the total trials. Control performance is arbitrarily assigned a value of 100% for avoidance responding and the dose calculated to produce a 50% block in avoidance responding (AB50) is obtained from a dose-effect regression line fitted by the method of least squares. Potential antipsychotic compounds suppress avoidance responding and increase escape responding.
row,Compound,Active at [mg/kg]
1,"6-[4-[4-2-pyrimidinyl)-1-piperazinyl]butyl]-3a,4,4a,7a,8,8a-hexahydro-3-methyl-4,8-methano-5H-pyrrolo[3,4-f]-1,2-benzisoxazole-5,7(6H)-dione, dihydrochloride, hydrate [Example 8]",40
2,"CC1=NOC2C3CC(C12)C1C(=O)N(CCCCN2CCN(c4cnccn4)CC2)C(=O)C31 (stereo not drawn) [Example 7, 6-[4-[4-(2-pyrazinyl)-1-piperazinyl]butyl]-3a,4,4a,7a,8,8a-hexahydro-3-methyl-4,8-methano-5H-pyrrolo[3,4-f]-1,2-benzisoxazole-5,7(6H)-dione, ethanedioate (1:1), hemiethanolate]",40
3,"CC1=NOC2C3CCC(C12)C1C(=O)N(CCCCN2CCN(c4ncccn4)CC2)C(=O)C31.O=C(O)C(=O)O (stereo not drawn) [Example 10, 6-[4-[4-(2-pyrimidinyl)-1-piperazinyl]butyl]-3a,4,4a,7a,8,8a-hexahydro-3-methyl-4,8-ethano-5H-pyrrolo[3,4-f]-1,2-benzisoxazole-5,7(6H)-dione, ethanedioate (1:1)]",40
4,"Cl.O=C1C2C3CS(=O)(=O)CC3C2C(=O)N1CCCCN1CCN(c2nccnc2Cl)CC1 (stereo not drawn) [Example 2, 5-[4-[4-(3-chloro-2-pyrazinyl)-1-piperazinyl]butyl]tetrahydro-1H-thieno[3',4':3,4]cyclobuta[1,2-c]pyrrole-4,6(3H,5H)dione 2,2-dioxide, hydrochloride]",40
5,"CC1=NOC2C3CCC(C12)C1C(=O)N(CCCCN2CCN(c4cnccn4)CC2)C(=O)C31.O=C(O)C(=O)O (stereo not drawn) [Example 11, 6-[4-[4-(2-pyrazinyl)-1-piperazinyl]butyl]-3a,4,4a,7a,8,8a-hexahydro-3-methyl-4,8-ethano-5H-pyrrolo[3,4-f]-1,2-benzisoxazole-5,7(6H)-dione, ethanedioate (1:1)]",40
6,"Cl.O=C1C2C3CS(=O)(=O)CC3C2C(=O)N1CCCCN1CCN(c2cncc(Cl)n2)CC1 (stereo not drawn) [Example 1, 5-[4-[4-(6-chloro-2-pyrazinyl)-1-piperazinyl]butyl]tetrahydro-1H-thieno[3',4':3,4]cyclobuta[1,2-c]pyrrole-4,6(3H,5H)-dione 2,2 dioxide hydrochloride]",40
7,"CC1=NOC2C3CC(C12)C1C(=O)N(CCCCN2CCN(c4cncc(Cl)n4)CC2)C(=O)C31.O=C(O)C(=O)O (stereo not drawn) [Example 6, 6-[4-[4-(6-chloro-2-pyrazinyl)-1-piperazinyl]butyl]-3a,4,4a,7a,8,8a-hexahydro-3-methyl-4,8-methano-5H-pyrrolo[3,4-f]-1,2-benzisoxazole-5,7(6H)-dione, ethanedioate (1:1)]",40

# Same assay, conditions: p.o.
row,Compound,Active at [mg/kg]
1,"Cl.O=C1C2C3CS(=O)(=O)CC3C2C(=O)N1CCCCN1CCN(c2cncc(Cl)n2)CC1 (stereo not drawn) [Example 1, 5-[4-[4-(6-chloro-2-pyrazinyl)-1-piperazinyl]butyl]tetrahydro-1H-thieno[3',4':3,4]cyclobuta[1,2-c]pyrrole-4,6(3H,5H)-dione 2,2 dioxide hydrochloride]",40

# Test system: dopamine receptor
# Assay: not given
# Details: i.p.; result in words
row,Compound,activity in the apomorphine-induced stereotyped behavior assay
1,"O=C1CC2(CCCC2)CC(=O)N1CCCCN1CCN(c2ncccn2)CC1 [Buspirone, 8-[4-[4-(2-pyrimidinyl)-1-piperazinyl]butyl]-8-azaspiro[4.5]decane-7,9-dione]",inactive

# Source: patent publication US5053508A, “Fused heterotricyclic imides with psychotropic activity and intermedrates thereof” (American Home Products Corporation, priority 1990, dated 1991)
